According to BindingDB's records for doi:10.1021/jm020164l (University of Montreal, 2002):
pIC50: −log10 of the molar value.

Target: Delta-type opioid receptor (Homo sapiens, UniProt P41143)
Experiment: In vitro binding affinity against cloned human Opioid receptor delta 1 expressed in HEK 293S cells

Delta-type opioid receptor, sequence (P41143 whole entry): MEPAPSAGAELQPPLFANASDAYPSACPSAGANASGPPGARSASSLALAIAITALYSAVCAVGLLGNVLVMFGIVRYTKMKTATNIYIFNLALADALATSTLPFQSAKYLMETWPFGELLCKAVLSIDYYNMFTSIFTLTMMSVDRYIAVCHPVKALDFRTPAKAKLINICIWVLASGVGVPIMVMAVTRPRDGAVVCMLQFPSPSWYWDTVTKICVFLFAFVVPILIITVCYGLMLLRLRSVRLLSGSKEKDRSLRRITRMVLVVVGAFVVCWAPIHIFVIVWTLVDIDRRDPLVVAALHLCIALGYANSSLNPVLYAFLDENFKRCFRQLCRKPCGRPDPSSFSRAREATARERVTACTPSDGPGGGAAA

C[C@H]1C2C3=CC=CCC3[C@@H](Cc3ccccc32)N1C (stereo partly drawn) [16,17-dimethyl-(16S)-17-azatetracyclo[7.6.2.02,7.010,15]heptadeca-2(7),3,5,12,14-pentaene]
pIC50: < 5.00
